According to patent US8791132B2, “Compounds and methods for treatment of hypertension” (Medivation Technologies, Inc., priority 2011, dated 2014):
Read-outs that look alike come from different tables or passages of the source. Values belong to the compound of their own block, whether it stands above or below them.

Legend:
[1] = biological target: T1, human recombinant adrenergic α2B receptor (Homo sapiens, UniProt P18089); experiment: Radioligand binding, adrenergic α2B ([3H]Rauwolscine); settings: for Percentage inhibition of ligand binding, Adrenergic α2B / Percentage inhibition of ligand binding, Adrenergic α2B (0.03 μM): 0.03 µM; for Ki: read-out: Ki α2B
T1 construct: expressed in transfected cells; host or cells: CHO-K1
T1 sequence (P18089 1-450): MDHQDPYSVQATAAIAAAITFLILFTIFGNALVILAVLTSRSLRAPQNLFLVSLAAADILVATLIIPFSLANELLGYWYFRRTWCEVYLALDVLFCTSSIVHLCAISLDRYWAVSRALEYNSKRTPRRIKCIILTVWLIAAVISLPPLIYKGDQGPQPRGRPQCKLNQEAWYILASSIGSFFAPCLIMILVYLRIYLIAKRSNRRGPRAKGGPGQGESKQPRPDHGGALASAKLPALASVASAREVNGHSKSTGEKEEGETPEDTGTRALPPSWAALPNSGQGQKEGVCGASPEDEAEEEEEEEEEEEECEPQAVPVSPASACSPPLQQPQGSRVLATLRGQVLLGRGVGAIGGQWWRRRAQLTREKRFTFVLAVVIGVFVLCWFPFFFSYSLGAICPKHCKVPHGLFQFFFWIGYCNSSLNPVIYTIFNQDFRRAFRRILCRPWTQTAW
Method in brief: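 Assay used CHO-K1-expressed human α2B receptor in Tris-HCl pH 7.4 buffer with MgCl2, EDTA and BSA; 60 min incubation at 25 °C.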

[2] = biological target: T2, human recombinant adrenergic α2A receptor (Homo sapiens, UniProt P08913); experiment: Radioligand binding, adrenergic α2A ([3H]MK-912)
T2 construct: expressed in transfected cells; host or cells: insect Sf9 cells
T2 sequence (P08913 1-465): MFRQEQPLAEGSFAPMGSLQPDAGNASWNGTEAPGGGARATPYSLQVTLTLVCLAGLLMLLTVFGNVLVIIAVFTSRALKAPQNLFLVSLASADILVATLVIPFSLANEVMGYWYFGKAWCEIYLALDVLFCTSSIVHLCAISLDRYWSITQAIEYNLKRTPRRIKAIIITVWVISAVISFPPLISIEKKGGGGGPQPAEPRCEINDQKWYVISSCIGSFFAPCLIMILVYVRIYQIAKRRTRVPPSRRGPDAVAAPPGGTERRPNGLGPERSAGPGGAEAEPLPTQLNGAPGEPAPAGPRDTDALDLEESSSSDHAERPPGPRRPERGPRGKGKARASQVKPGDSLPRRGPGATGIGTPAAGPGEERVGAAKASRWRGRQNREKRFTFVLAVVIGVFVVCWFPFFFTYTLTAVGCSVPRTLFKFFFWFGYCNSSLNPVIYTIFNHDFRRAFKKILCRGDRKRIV
Method in brief: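 Sf9-expressed receptor was incubated with compound for 60 min at 25 °C in modified Tris-HCl buffer, pH 7.4. Nonspecific binding was taken as that remaining with 10 μM WB-4101.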

[3] = biological target: T3, rat adrenergic α1B receptor (Rattus norvegicus, UniProt P15823); experiment: Radioligand binding, adrenergic α1B ([3H]Prazosin); settings: for Percentage inhibition of ligand binding, Adrenergic α1B / Percentage inhibition of ligand binding, Adrenergic α1B (0.1 μM): 0.1 µM
T3 construct: rat adrenergic α1B receptor obtained from Wistar Rat liver; from tissue; host or cells: Wistar rat liver
T3 sequence (P15823 1-515): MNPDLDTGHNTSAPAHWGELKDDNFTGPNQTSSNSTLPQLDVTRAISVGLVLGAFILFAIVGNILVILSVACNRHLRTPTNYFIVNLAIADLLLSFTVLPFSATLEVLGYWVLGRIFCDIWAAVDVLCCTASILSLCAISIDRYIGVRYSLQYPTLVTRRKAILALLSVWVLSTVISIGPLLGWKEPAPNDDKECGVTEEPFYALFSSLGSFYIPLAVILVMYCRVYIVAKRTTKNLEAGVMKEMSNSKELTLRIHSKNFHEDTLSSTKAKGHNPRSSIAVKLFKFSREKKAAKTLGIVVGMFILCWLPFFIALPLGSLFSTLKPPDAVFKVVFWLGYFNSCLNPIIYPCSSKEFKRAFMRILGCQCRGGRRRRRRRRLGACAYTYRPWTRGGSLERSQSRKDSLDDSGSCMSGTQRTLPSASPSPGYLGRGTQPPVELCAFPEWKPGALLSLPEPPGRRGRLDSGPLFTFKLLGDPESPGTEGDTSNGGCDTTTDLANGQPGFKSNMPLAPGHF
Method in brief: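 Incubation ran 60 min at 25 °C in Tris-HCl buffer (50 mM, pH 7.4, 0.5 mM EDTA) with Wistar rat liver α1B receptor. 10 μM phentolamine set non-specific binding.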

[4] = 0.03 μM compound, read-out: Percentage inhibition of ligand binding, Adrenergic α2B
[5] = 0.1 μM compound, read-out: Percentage inhibition of ligand binding, Adrenergic α2A
[6] = 0.1 μM compound, read-out: Percentage inhibition of ligand binding, Adrenergic α1B
[7] = read-out: Percentage inhibition of ligand binding, Adrenergic α2B (0.03 μM), compound at 0.03 μM, [3H]Rauwolscine, repeat datapoints each shown
[8] = compound at 0.1 μM, [3H]Prazosin, repeat datapoints each shown
[9] = read-out: Percentage inhibition of ligand binding, Adrenergic α1B (0.03 μM), compound at 0.03 μM, [3H]Prazosin, repeat datapoints each shown
[10] = read-out: Percentage inhibition of ligand binding, Adrenergic α1B (0.1 μM), compound at 0.1 μM, [3H]Prazosin, repeat datapoints each shown
[11] = compound at 0.03 μM, [3H]Rauwolscine, repeat datapoints each shown
[12] = compound at 0.1 μM, [3H]MK-912, repeat datapoints each shown, 0.1 µM
[13] = read-out: Percentage inhibition of ligand binding, Adrenergic α2A (0.1 μM), compound at 0.1 μM, [3H]MK-912, repeat datapoints each shown
[14] = compound at 0.03 μM, [3H]Rauwolscine, repeat assays, each datapoint shown
[15] = compound at 0.1 μM, [3H]MK-912, repeat assays, each datapoint shown, 0.1 µM
[16] = compound at 0.1 μM, [3H]Prazosin, repeat assays, each datapoint shown

SMILES: OC(Cn1c2c(c3ccccc31)C1CCC(C2)N1)c1ccncc1 (stereo not shown) [II-85]
inhibition at 0.03 µM [1, 4]: -2%
inhibition at 0.1 µM [2, 5]: 15%
inhibition at 0.1 µM [3, 6]: -7%

SMILES: CC(=O)NC(Cn1c2c(c3cc(C)ccc31)CN(C)CC2)c1ccncc1 (single isomer, unassigned) [II-1b, N-(2-(1,2,3,4-tetrahydro-2,8-dimethylpyrido[4,3-b]indol-5-yl)-1-(pyridin-4-yl)ethyl)acetamide]
Percentage inhibition of ligand binding, Adrenergic α2B ([1]; 0.03 μM compound): 32%
Percentage inhibition of ligand binding, Adrenergic α2A ([2]; 0.1 μM compound, 0.1 µM): 1%
Percentage inhibition of ligand binding, Adrenergic α1B ([3]; 0.1 μM compound): −7%

SMILES: Cc1ccc(C(C)(O)Cn2c3c(c4cc(Cl)ccc42)CN(C)CC3)cn1 (single isomer, unassigned) [93b]
Percentage inhibition of ligand binding, Adrenergic α2B (0.03 μM) [1, 11]: 26%
Percentage inhibition of ligand binding, Adrenergic α2A (0.1 μM) [2, 12]: −5%
Percentage inhibition of ligand binding, Adrenergic α1B (0.1 μM) [3, 8]: 1%

SMILES: Cc1ccc2c(c1)c1c(n2CC(CCN(C)C)c2ccncc2)CCN(C)C1 (stereo not shown) [II-232, [4-(2,8-dimethyl-1,2,3,4-tetrahydro-pyrido[4,3-b]indol-5-yl)-3-pyridin-4-yl-butyl]-dimethyl-amine]
inhibition at 0.03 µM [1, 7]: 28%
inhibition at 0.1 µM [2, 13]: 3%
inhibition at 0.1 µM [3, 10]: 3%

SMILES: Cc1ccc2c(c1)c1c(n2CC(O)c2ccnc(C(=O)O)c2)CCN2CCCC12 (stereo not shown) [compound 168]
inhibition at 0.03 µM [1, 7]: 32%
inhibition at 0.1 µM [2, 13]: 16%
inhibition at 0.1 µM [3, 10]: 23%

SMILES: Cc1ccc2c(c1)c1c(n2CC(O)c2ccccc2F)CN(C)CC1 (single isomer, unassigned) [II-49b, 2-(2,6-dimethyl-3,4-dihydro-1H-pyrido[3,4-b]indol-9(2H)-yl)-1-(2-fluorophenyl)ethanol]
Percentage inhibition of ligand binding, Adrenergic α2B ([1]; 0.03 μM compound): 50%
Percentage inhibition of ligand binding, Adrenergic α2A ([2]; 0.1 μM compound, 0.1 µM): 18%
Percentage inhibition of ligand binding, Adrenergic α1B ([3]; 0.1 μM compound): 69%

SMILES: Cc1ccc2c(c1)c1c(n2CC(O)c2ccnc3ccccc23)CCN(C)C1 (stereo not shown) [II-90, 2-(2,8-dimethyl-3,4-dihydro-1H-pyrido[4,3-b]indol-5(2H)-yl)-1-(quinolin-4-yl)ethanol]
inhibition at 0.03 µM [1, 4]: 55%
inhibition at 0.1 µM [2, 5]: 19%
inhibition at 0.1 µM [3, 6]: 62%

SMILES: CN1CCc2c(c3cc(Cl)ccc3n2CC(C)(O)c2cccnc2)C1 (single isomer, unassigned) [31a]
Percentage inhibition of ligand binding, Adrenergic α2B [1, 14]: 97%
inhibition at 0.03 µM ([1]; compound at 0.03 μM, [3H]Rauwolscine, repeat assays, each datapoint shown, read-out: Percentage inhibition of ligand binding, Adrenergic α2B): 93%
Ki [1]: 1.58 nM
Ki [2]: 167 nM
inhibition at 0.03 µM ([2]; compound at 0.03 μM, [3H]MK-912, repeat assays, each datapoint shown, read-out: Percentage inhibition of ligand binding, Adrenergic α2A): 11%
Percentage inhibition of ligand binding, Adrenergic α2A [2, 15]: 27%
inhibition at 0.1 µM ([2]; compound at 0.1 μM, [3H]MK-912, repeat assays, each datapoint shown, read-out: Percentage inhibition of ligand binding, Adrenergic α2A): 19%
inhibition at 0.03 µM ([3]; compound at 0.03 μM, [3H]Prazosin, repeat assays, each datapoint shown, read-out: Percentage inhibition of ligand binding, Adrenergic α1B): 16%
Percentage inhibition of ligand binding, Adrenergic α1B [3, 16]: 28%
inhibition at 0.1 µM ([3]; compound at 0.1 μM, [3H]Prazosin, repeat assays, each datapoint shown, read-out: Percentage inhibition of ligand binding, Adrenergic α1B): 25%

SMILES: Cc1cnc2c(c1)c1c(n2CCc2cccnc2)CCN2CCCC12 (single isomer, unassigned) [134b, 9-methyl-6-(2-pyridin-3-yl-ethyl)-2,3,4,5,6,10c-hexahydro-1H-3a,6,7-triaza-cyclopenta[c]fluorene]
Percentage inhibition of ligand binding, Adrenergic α2B (0.03 μM) [1, 11]: 103%
Ki [1]: 0.43 nM
inhibition at 0.03 µM [1, 7]: 102%
Ki [2]: 102 nM
Percentage inhibition of ligand binding, Adrenergic α2A (0.1 μM) [2, 12]: 29%
inhibition at 0.1 µM [2, 13]: 23%
Percentage inhibition of ligand binding, Adrenergic α1B (0.1 μM) [3, 8]: 95%
inhibition at 0.03 µM [3, 9]: 78%
inhibition at 0.1 µM [3, 10]: 93%

Results, then the compound that gave them:

Ki [1]: 0.77 nM
inhibition at 0.03 µM [1, 7]: 100%
Ki [2]: 88.6 nM
Percentage inhibition of ligand binding, Adrenergic α1B (0.1 μM) [3, 8]: 96%
inhibition at 0.03 µM [3, 9]: 86%
inhibition at 0.1 µM [3, 10]: 94%
SMILES: Cc1ccc2c(c1)c1c(n2CC(O)c2ccncc2)CCN2CCCC12 (single isomer, unassigned) [129c]

inhibition at 0.03 µM [1, 4]: 54%
inhibition at 0.1 µM [2, 5]: 9%
inhibition at 0.1 µM [3, 6]: 11%
SMILES: CN1CCc2c(c3cc(CO)ccc3n2CC(O)c2ccncc2)C1 (stereo not shown) [II-60, 2-(8-hydroxymethyl-2-methyl-1,2,3,4-tetrahydro-pyrido[4,3-b]indol-5-yl)-1-pyridin-4-yl-ethanol]

Percentage inhibition of ligand binding, Adrenergic α2B [1, 14]: 5%
Percentage inhibition of ligand binding, Adrenergic α2A [2, 15]: 9%
Percentage inhibition of ligand binding, Adrenergic α1B [3, 16]: 7%
SMILES: Cc1cnc2c(c1)c1c(n2CC(O)c2ccncc2)CCNC1 (single isomer, unassigned) [58a, 2-(3-methyl-5,6,7,8-tetrahydro-1,6,9-triaza-fluoren-9-yl)-1-pyridin-4-yl-ethanol]

Percentage inhibition of ligand binding, Adrenergic α2B [1, 14]: 20%
Percentage inhibition of ligand binding, Adrenergic α2A [2, 15]: 9%
Percentage inhibition of ligand binding, Adrenergic α1B [3, 16]: 16%
SMILES: CN1Cc2c(n(CC(O)c3ccncc3)c3ncccc23)C(C)(C)C1 (single isomer, unassigned) [17b, 1-pyridin-4-yl-2-(6,8,8-trimethyl-5,6,7,8-tetrahydro-1,6,9-triaza-fluoren-9-yl)-ethanol]

Percentage inhibition of ligand binding, Adrenergic α2B [1, 14]: 24%
Percentage inhibition of ligand binding, Adrenergic α2A [2, 15]: −1%
Percentage inhibition of ligand binding, Adrenergic α1B [3, 16]: 21%
SMILES: Cc1ccc2c(c1)c1c(n2CC(O)c2cccnc2)CN(C)CC1 (stereo not drawn) [compound 43, 2-(2,6-dimethyl-1,2,3,4-tetrahydro-β-carbolin-9-yl)-1-pyridin-3-yl-ethanol]

Percentage inhibition of ligand binding, Adrenergic α2B [1, 14]: 21%
Percentage inhibition of ligand binding, Adrenergic α2A ([2]; compound at 0.1 μM, [3H]MK-912, repeat assays, each datapoint shown): 3%
Percentage inhibition of ligand binding, Adrenergic α1B [3, 16]: 8%
SMILES: CC(O)(Cn1c2c(c3cc(Cl)cnc31)CNCC2)c1ccncc1 (single isomer, unassigned) [12b, 1-(3-chloro-5,6,7,8-tetrahydro-1,6,9-triaza-fluoren-9-yl)-2-pyridin-4-yl-propan-2-ol]

Percentage inhibition of ligand binding, Adrenergic α2B [1, 14]: 39%
Percentage inhibition of ligand binding, Adrenergic α2A [2, 15]: 0%
Percentage inhibition of ligand binding, Adrenergic α1B [3, 16]: 24%
SMILES: Cc1cnc2c(c1)c1c(n2CC(O)c2ccncc2)CCNC1 (single isomer, unassigned) [58b, 2-(3-methyl-5,6,7,8-tetrahydro-1,6,9-triaza-fluoren-9-yl)-1-pyridin-4-yl-ethanol]
